Publication doi:10.1101/2024.03.08.584095v1, “LPOR and the membranes – evolutionary pathway towards prolamellar body formation” (biorxiv, 2024)

What was measured:
[1] = tested on: T1, AtPORB_α10; assay: […] K fluorescence, Chlide/Pchlide ratio after […] s illumination, modified Michaelis-Menten fit; format: biochemical, Arabidopsis thaliana; conditions: 5 µM Pchlide, 15 µM enzyme, no lipids, pH 7.1, room temperature; apparent analogue of Km
T1 construct: gene PORB; AtPORB with helix alpha10 of SynPOR; pET15b, E. coli

[2] = biological target: T2, AtPORB (Arabidopsis thaliana, UniProt P21218); assay: […] K fluorescence emission shift of Pchlide; format: binding; conditions: 5 µM Pchlide, 15 µM enzyme, 200 µM NADP+, 100 µM OPT lipids, pH 7.1; inactive complex
T2 construct: gene PORB; cloned in a previous study
T2 sequence (P21218 67-401): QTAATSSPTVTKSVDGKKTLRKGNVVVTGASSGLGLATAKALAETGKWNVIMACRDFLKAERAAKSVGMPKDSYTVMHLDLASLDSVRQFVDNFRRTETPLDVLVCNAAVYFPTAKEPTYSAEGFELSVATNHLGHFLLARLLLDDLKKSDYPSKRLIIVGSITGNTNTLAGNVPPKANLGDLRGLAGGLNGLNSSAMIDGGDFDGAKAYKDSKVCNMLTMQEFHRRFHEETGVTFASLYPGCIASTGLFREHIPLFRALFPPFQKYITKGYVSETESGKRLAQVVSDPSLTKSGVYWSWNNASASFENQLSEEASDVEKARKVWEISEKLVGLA

[3] = biological target: T3, SynPOR (Synechocystis sp. PCC 6803, UniProt Q59987); assay: […] K fluorescence emission shift of Pchlide; format: binding; conditions: 5 µM Pchlide, 15 µM enzyme, 200 µM dinucleotide, no lipids, pH 7.1
T3 construct: gene por; recombinant, E. coli BL21(DE3)pRIL, cloned in a previous study; tag not described here
T3 sequence (Q59987 whole entry): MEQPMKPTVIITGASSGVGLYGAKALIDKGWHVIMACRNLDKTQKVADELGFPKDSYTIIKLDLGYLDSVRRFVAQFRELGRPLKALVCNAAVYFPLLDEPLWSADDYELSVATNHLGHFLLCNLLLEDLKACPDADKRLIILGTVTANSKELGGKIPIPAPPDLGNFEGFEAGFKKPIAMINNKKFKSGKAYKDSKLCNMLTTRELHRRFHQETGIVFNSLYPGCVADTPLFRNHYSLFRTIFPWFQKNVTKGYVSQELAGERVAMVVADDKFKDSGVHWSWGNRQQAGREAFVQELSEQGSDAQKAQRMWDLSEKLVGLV

| SMILES | Km [1] [µM] | 77 K fluorescence emission shift of Pchlide [2] | 77 K fluorescence emission shift of Pchlide [3] |
| --- | --- | --- | --- |
| NC(=O)C1=CN([C@@H]2O[C@H](COP(=O)(O)OP(=O)(O)OC[C@H]3O[C@@H](n4cnc5c(N)ncnc54)[C@H](OP(=O)(O)O)[C@@H]3O)[C@@H](O)[C@H]2O)C=CC1 [NADPH] | 22.6 ± 3.3 | – | – |
| NC(=O)c1ccc[n+]([C@@H]2O[C@H](COP(=O)(O)OP(=O)(O)OC[C@H]3O[C@@H](n4cnc5c(N)ncnc54)[C@H](OP(=O)(O)O)[C@@H]3O)[C@@H](O)[C@H]2O)c1 [NADP+] | – | AtPORB:Pchlide can bind NADP^+ in the presence of OPT lipids | Introduction of NADP^+ into the lipid-free mixture induced further red shift |
